Patent publication US20230407296A1, “Method to Regulate ALOX12-AS1 IncRNA-Mediated Alteration of ALOX12 Protein and to Screen for Novel Drugs to Alter ALOX12 Protein Level” (priority 2021, published 2023)

Experiments:
ALOX12-AS1-201 lncRNA = assay: Nucleo-cytoplasmic translocation of ALOX12-AS1-201 in HEK293 cells (FISH, fractionation, quantitative RT-PCR); assay type: cell-based, human; conditions: 10 μM TPA, 1 hour
Protocol: Phorbol ester (12-O-Tetradecanoylphorbol 13-acetate: TPA) is an activator of protein kinase C (PKC) that has been frequently used for inducing differentiation in different cell types including myeloid cells. […] Therefore, we treated HEK293 cells with 10 μM TPA for 1 hour and observed ALOX12-AS1-201 nucleo-cytoplasmic translocation as well as measured ALOX12 protein level.
Total RNA from different cell lines was extracted with Trizol reagent (Catalog number: 15596026; ThermoFisher Scientific, Canada) as per the manufacturer's recommended protocol. […] Absolute quantification of ALOX12-AS1 lncRNA isoforms was performed in a Mastercycler®ep realplex real-time PCR system (Eppendorf, Hamburg, Germany) using SYBR green dye (Catalog number: S7563; ThermoFisher Scientific). […] Real-time PCR data quality control calculations were determined by the SAS program as described previously and the calculated PCR efficiency was between 95%-99%. Quantitative RT-PCR was conducted for different cell-line derived RNAs, and the specificity of each amplified product was confirmed by melting curve analysis. Results were expressed as copy number of specific isoforms per 100 ng of total RNA.
For RNA-FISH, cells were grown on coverslips and human tissue cryosections were adhered to glass slides. […] The cells were then fixed and analyzed by RNA-FISH. […]

[1] = system: ALOX12 protein level in THP-1 cells; assay: ALOX12 protein level in TPA-treated THP-1 cells (immunoblot); assay type: cell-based, human
Protocol: Phorbol ester (12-O-Tetradecanoylphorbol 13-acetate: TPA) is an activator of protein kinase C (PKC) that has been frequently used for inducing the differentiation of different cell types, including myeloid cells. Activation of human monocytic cells affects ALOX expression. Therefore, we induced differentiation of monocytic THP-1 cells to macrophage-like cells (MLCs) with 100 nM TPA [91, 92] and monitored the ALOX12 protein level as well as nucleo-cytoplasmic translocation of ALOX12-AS1-201. […] We concurrently monitored expression of the integrin subunit a M (ITGAM), also known as CD11b, which regulates myeloid cell polarization and is expressed in macrophages to facilitate adhesion, migration, chemotaxis, and accumulation during inflammation. […] CD68 is a transmembrane glycoprotein that is mainly located in the endosomal/lysosomal compartment but can rapidly shuttle to the cell surface in myeloid cells. […] Based on these observations, we performed nuclear and cytoplasmic fractionation at 72 hours of TPA treatment.
Relative quantification of proteins was performed as described previously. […] The immunoblots were imaged using a ChemiDoc XRS+ system (Bio-Rad) and band intensities were quantified using ImageJ (version 1.48) Software. […]

CCCCCCCCCCCCCC(=O)O[C@@H]1[C@@H](C)[C@@]2(O)[C@@H](C=C(CO)C[C@]3(O)C(=O)C(C)=C[C@@H]23)[C@@H]2C(C)(C)[C@]12OC(C)=O [TPA, 12-O-Tetradecanoylphorbol 13-acetate] was tested, and the ALOX12-AS1-201 nucleo-cytoplasmic translocation (ALOX12-AS1-201 lncRNA; FISH, vs vehicle (DMSO)) was “dramatic nucleo-cytoplasmic translocation”, the “cytosolic ALOX12-AS1-201 lncRNA abundance” value (ALOX12-AS1-201 lncRNA; subcellular fractionation and quantitative RT-PCR) was “significant increase” and the ALOX12 protein levels ([1]; THP-1 cells, 100 nM TPA, treatment period 1-72 h, immunoblot) was “dramatically reduced”. For the same molecule, the ALOX12 protein levels ([1]; TPA-differentiated MLCs, 100 nM, 72 hours, vs vehicle (DMSO) treated THP-1 cells) was “concomitant decrease”.
